Reference: PMC8535866, “TMEM16A, a Homoharringtonine Receptor, as a Potential Endogenic Target for Lung Cancer Treatment” (International Journal of Molecular Sciences, 2021)
Positions count from the first letter of the chain named.

How the values were obtained:
TMEM16A [1] = target: T1, TMEM16A (Mus musculus, UniProt Q8BHY3); experiment: whole-cell patch clamp in LA795 cells, Hill fit; assay type: cell-based
T1 construct: gene Ano1; endogenous TMEM16A in LA795 cells
T1 sequence (Q8BHY3 1-960): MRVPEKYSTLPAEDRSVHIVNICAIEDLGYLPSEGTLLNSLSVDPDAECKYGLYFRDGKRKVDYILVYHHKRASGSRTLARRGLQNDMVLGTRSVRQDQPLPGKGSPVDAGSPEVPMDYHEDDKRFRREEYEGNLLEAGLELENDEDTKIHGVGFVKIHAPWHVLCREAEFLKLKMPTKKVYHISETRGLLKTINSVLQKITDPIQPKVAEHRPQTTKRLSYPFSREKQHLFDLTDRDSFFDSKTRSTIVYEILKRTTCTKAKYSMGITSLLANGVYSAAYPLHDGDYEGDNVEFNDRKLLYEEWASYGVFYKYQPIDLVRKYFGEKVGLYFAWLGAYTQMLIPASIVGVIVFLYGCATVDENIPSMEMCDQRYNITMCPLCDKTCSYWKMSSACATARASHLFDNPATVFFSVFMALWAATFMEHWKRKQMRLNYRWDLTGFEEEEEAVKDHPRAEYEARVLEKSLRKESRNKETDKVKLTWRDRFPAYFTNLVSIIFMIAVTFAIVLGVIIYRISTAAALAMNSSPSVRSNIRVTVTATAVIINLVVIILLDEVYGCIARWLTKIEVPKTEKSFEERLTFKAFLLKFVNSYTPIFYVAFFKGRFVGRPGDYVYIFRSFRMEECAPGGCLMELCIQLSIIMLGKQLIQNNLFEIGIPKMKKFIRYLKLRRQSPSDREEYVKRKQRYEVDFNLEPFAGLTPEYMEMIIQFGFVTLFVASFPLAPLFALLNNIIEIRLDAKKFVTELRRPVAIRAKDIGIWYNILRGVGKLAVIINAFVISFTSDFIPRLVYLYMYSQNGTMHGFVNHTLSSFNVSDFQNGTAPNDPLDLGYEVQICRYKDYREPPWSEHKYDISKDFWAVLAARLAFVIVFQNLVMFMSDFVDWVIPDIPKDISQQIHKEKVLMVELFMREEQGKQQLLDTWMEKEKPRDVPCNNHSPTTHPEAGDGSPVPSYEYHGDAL

TMEM16A [2] = target: T2, TMEM16A (Mus musculus, UniProt Q8BHY3, K769A); experiment: whole-cell patch clamp of TMEM16A mutant; assay type: cell-based
T2 construct: gene Ano1; TMEM16A mutant plasmid
T2 sequence (Q8BHY3 1-960 K769A): T1 sequence (Q8BHY3 1-960) with K769A

COC(=O)C[C@](O)(CCCC(C)(C)O)C(=O)O[C@@H]1C(OC)=C[C@]23CCCN2CCc2cc4c(cc2[C@H]13)OCO4 [HHT, Homoharringtonine]
IC50 (TMEM16A [1]): 11.4 ± 1.68 µM | IC50 (TMEM16A [2]): 70.8 ± 24.3 µM
